Results on two molecules are retold here after article PMC11784639, “Archaeal Signalling Networks—New Insights Into the Structure and Function of Histidine Kinases and Response Regulators of the Methanogenic Archaeon Methanosarcina acetivorans” (Environmental Microbiology, 2025).

For assay [1], the target named is T1, PK (Methanosarcina acetivorans, UniProt Q8THY1).
T1 construct: gene MA_4377; PAS and HK domains only (no CHASE4, HAMP, R1, R2)
T1 sequence (Q8THY1 351-765 limits assumed): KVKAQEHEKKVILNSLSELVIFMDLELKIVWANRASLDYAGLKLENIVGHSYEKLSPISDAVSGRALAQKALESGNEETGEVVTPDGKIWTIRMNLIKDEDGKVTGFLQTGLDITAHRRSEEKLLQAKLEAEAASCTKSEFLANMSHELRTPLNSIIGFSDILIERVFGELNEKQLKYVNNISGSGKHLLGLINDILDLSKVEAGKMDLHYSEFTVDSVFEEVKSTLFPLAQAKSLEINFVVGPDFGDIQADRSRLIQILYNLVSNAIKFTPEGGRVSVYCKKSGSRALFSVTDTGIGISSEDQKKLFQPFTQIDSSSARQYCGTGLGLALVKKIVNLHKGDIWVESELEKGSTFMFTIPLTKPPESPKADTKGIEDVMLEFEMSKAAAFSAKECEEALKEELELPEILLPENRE
The experiment in a line: autophosphorylation, SDS-PAGE autoradiography. To be noted: labelled compound ([γ-32P]ATP 3.3 μM) with 200 μM ATP; 10 μM kinase; kinase buffer pH 8, 5 mM MgCl2. It counts as biochemical.

The target of assay [2] is T2, MA4377 (full-length) (Methanosarcina acetivorans, UniProt Q8THY1).
T2 construct: gene MA_4377
T2 sequence (Q8THY1 1-1028): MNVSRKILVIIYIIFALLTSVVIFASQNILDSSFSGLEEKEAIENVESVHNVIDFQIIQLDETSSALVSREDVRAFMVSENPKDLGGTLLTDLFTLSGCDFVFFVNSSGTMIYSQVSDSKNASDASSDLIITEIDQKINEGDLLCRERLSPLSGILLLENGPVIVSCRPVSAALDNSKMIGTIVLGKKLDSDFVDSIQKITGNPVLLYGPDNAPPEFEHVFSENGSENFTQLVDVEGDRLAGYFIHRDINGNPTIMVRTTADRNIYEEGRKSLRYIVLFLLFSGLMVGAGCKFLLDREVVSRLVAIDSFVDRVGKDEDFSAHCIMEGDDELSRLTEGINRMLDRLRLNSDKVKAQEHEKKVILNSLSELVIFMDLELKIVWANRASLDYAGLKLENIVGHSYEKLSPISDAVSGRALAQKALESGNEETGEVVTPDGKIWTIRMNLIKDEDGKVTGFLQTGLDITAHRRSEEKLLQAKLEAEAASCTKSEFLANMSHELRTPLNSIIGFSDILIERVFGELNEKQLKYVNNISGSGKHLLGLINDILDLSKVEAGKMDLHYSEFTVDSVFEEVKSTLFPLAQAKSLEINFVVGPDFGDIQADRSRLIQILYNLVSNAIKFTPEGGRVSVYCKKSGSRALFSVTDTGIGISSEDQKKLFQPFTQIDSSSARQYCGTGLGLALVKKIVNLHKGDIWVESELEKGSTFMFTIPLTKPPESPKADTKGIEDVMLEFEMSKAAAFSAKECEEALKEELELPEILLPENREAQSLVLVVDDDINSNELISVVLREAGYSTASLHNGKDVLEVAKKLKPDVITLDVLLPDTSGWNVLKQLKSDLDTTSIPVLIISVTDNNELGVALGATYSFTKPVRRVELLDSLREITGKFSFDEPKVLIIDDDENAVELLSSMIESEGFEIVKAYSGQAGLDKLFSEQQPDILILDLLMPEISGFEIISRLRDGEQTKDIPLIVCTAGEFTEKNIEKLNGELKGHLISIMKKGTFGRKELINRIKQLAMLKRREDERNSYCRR
The experiment in a line: fluorescence titration with TNP-ATP. As to conditions: fluorescent ATP analogue; kinase buffer pH 8, 5 mM MgCl2; 541 nm emission. It counts as binding.

The target of assay [3] is T3, MA2082 (Methanosarcina acetivorans, UniProt Q8TP40).
T3 construct: gene MA_2082
T3 sequence (Q8TP40 1-698): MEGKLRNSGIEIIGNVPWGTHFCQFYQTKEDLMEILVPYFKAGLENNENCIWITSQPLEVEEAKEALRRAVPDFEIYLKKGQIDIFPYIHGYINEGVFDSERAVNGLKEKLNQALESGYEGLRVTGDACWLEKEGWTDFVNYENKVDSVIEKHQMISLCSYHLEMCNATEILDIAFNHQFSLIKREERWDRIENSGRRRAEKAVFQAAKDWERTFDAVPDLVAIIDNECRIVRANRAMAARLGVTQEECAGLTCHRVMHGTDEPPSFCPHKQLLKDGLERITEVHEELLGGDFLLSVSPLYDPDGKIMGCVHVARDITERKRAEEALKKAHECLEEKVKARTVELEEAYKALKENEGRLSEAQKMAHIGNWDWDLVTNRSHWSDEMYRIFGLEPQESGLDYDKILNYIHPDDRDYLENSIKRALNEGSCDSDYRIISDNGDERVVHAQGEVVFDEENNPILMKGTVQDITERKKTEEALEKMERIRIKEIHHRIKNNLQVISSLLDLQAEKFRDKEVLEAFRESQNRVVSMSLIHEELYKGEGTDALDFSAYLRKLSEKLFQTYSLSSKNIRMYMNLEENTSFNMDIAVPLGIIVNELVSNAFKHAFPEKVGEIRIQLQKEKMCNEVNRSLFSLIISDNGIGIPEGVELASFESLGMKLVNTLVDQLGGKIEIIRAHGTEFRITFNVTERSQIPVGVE
The experiment in a line: fluorescence titration with TNP-ATP. To be noted: fluorescent ATP analogue; kinase buffer pH 8, 5 mM MgCl2; 541 nm emission. It counts as binding.

Assay [4] concerns the target T4, PKR1R2 (Methanosarcina acetivorans, UniProt Q8THY1).
T4 construct: gene MA_4377; cytosolic truncation PAS-HK-R1-R2 without CHASE4 and HAMP (membrane) part
T4 sequence (Q8THY1 351-1028 limits assumed): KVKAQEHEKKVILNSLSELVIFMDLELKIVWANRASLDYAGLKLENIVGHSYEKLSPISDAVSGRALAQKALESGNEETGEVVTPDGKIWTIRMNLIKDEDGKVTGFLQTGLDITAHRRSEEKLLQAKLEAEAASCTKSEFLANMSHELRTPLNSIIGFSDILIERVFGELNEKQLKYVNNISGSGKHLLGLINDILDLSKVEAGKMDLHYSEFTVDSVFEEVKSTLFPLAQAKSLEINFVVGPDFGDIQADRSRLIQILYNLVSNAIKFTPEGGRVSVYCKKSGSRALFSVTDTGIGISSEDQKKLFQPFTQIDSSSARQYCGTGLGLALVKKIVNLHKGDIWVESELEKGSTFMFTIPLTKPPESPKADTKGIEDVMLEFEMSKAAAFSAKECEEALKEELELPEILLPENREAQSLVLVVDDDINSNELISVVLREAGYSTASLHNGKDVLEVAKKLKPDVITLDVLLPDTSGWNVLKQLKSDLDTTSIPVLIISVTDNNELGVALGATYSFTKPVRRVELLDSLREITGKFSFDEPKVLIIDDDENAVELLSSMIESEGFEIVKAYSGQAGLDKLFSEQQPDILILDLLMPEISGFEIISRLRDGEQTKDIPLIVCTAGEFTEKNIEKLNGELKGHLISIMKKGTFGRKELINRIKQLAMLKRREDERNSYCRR
Nature of the assay: fluorescence titration with TNP-ATP. As to conditions: fluorescent ATP analogue; kinase buffer pH 8, 5 mM MgCl2; 541 nm emission. It counts as binding.

The target in assay [5] is T5, RdmS (MA0863) (Methanosarcina acetivorans, UniProt Q8TSD5).
T5 construct: gene MA_0863
T5 sequence (Q8TSD5 1-749): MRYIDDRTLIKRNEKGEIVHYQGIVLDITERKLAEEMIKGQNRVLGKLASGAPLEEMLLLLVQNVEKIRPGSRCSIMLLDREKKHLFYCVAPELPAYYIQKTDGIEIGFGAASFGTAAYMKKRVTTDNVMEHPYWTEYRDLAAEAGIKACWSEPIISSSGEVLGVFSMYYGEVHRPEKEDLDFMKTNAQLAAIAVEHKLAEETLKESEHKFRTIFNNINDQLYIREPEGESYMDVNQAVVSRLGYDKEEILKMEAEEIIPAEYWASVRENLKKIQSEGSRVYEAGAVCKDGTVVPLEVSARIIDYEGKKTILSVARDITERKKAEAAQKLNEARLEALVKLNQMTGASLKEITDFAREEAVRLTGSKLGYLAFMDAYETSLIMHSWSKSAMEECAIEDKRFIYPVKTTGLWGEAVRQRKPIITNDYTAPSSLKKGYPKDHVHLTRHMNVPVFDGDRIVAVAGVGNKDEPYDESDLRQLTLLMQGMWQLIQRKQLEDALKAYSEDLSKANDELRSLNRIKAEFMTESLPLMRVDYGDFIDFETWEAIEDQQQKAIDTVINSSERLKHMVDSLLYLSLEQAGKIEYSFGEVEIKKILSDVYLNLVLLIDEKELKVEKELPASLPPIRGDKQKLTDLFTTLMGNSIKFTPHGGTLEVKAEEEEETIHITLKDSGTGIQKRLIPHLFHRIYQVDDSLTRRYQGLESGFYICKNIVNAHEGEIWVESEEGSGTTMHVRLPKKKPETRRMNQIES
Nature of the assay: fluorescence titration with TNP-ATP. In kind it is binding. As to conditions: fluorescent ATP analogue; kinase buffer pH 8, 5 mM MgCl2; 541 nm emission.

Assay [6] deals with T6, MA2013 (Methanosarcina acetivorans, UniProt Q8TPA1).
T6 construct: gene MA_2013
T6 sequence (Q8TPA1 1-1000): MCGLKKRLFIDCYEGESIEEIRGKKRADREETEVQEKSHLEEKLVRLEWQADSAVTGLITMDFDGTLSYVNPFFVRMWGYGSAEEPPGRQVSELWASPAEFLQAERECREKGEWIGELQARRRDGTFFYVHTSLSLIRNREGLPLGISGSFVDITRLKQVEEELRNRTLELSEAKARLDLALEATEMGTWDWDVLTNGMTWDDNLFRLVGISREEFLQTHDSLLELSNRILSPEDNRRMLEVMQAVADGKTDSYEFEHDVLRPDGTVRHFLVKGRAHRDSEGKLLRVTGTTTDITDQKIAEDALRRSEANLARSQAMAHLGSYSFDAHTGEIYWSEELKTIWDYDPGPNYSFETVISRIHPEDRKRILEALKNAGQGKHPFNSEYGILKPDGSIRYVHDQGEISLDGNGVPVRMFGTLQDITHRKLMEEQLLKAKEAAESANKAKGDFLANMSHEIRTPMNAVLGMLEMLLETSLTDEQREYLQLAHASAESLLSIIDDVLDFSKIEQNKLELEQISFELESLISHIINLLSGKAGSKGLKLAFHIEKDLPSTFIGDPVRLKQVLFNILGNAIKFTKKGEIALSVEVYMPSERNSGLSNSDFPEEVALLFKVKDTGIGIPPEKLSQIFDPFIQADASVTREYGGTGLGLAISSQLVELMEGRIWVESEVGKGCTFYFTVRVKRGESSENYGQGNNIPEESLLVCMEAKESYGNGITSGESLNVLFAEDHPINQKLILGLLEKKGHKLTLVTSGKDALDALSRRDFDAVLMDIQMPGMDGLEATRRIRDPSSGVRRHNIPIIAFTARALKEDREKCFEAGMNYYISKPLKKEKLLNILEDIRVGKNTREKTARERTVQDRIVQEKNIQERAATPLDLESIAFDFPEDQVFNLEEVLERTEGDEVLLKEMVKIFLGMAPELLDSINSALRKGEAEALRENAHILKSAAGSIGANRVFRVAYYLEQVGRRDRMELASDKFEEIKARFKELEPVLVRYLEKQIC
The experiment in a line: fluorescence titration with TNP-ATP. It counts as binding. To be noted: fluorescent ATP analogue; kinase buffer pH 8, 5 mM MgCl2; 541 nm emission.

Regarding `Nc1ncnc2c1ncn2[C@@H]1O[C@H](COP(=O)(O)OP(=O)(O)OP(=O)(O)O)[C@@H](O)[C@H]1O` [ATP], the “autophosphorylation, SDS-PAGE autoradiography” value in assay [1] is “indeed displayed time‐dependent autokinase activity”.

As for “2′‐(3′)‐O‐(2,4,6‐trinitrophenyl)‐adenosin 5′‐triphosphat [TNP-ATP]”, the Kd in assay [2] is roughly 11 µM; in assay [3], 29.6 ± 4.4 µM; in assay [4], roughly 11 µM; in assay [5] it was 17 ± 5.7 µM; in assay [6], 28.2 ± 1.3 µM.
